US20250002487A1, “HETEROCYCLIC COMPOUNDS AND USES THEREOF” (Ventus Therapeutics U.S., Inc., priority 2021, published 2025)

Biological target: human-cGAS (h-cGAS) (Homo sapiens, UniProt Q8N884)
Assay: hcGAS Kinase-Glo Assay
Assay type: biochemical
Settings: 40 nM h-cGAS, 100 μM ATP, 100 μM GTP, 25 nM dsDNA, 3 h incubation, read-out: hcGAS potency IC50
How it was run: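 Kinase-Glo luminescent read-out of human cGAS activity, following the published Lama et al. (2019) protocol with slightly altered conditions. Inhibition reported as IC50.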

Sequence of human-cGAS (h-cGAS) (Q8N884 whole entry): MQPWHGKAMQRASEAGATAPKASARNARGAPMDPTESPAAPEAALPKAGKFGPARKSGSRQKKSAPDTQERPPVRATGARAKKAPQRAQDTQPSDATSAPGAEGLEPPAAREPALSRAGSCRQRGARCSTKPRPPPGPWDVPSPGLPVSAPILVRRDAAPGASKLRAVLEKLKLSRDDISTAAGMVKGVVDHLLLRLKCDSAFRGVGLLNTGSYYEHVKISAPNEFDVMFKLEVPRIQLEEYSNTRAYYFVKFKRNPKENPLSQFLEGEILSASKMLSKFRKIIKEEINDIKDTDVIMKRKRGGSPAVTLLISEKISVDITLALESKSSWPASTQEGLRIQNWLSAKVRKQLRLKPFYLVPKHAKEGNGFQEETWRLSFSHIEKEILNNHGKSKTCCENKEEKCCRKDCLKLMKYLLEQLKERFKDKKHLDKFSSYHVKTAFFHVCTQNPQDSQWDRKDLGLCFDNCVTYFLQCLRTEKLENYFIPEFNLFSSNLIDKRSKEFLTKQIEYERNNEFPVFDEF

| SMILES | IC50 |
| --- | --- |
| CSc1nnc(NC(=O)c2onc3ccc(Sc4ccccc4)cc23)s1 [Compound 163, N-(5-(methylthio)-1,3,4-thiadiazol-2-yl)-5-(phenylthio)benzo[c]isoxazole-3-carboxamide] | ≥ 1000 nM |
| CSc1nnc(NC(=O)c2onc3ccc(S(=O)(=O)c4ccccc4)cc23)s1 [Compound 164, N-(5-(methylthio)-1,3,4-thiadiazol-2-yl)-5-(phenylsulfonyl)benzo[c]isoxazole-3 carboxamide] | 500 to 1000 nM |
| CSc1nnc(NC(=O)c2onc3ccc(Oc4ccccc4)cc23)s1 [Compound 165, N-(5-(methylthio)-1,3,4-thiadiazol-2-yl)-5-phenoxybenzo[c]isoxazole-3-carboxamide] | 500 to 1000 nM |
| CSc1nnc(NC(=O)c2onc3ccc(C(O)c4ccccc4)cc23)s1 (centres unmarked) [Compound 166, 5-(hydroxy(phenyl)methyl)-N-(5-(methylthio)-1,3,4-thiadiazol-2-yl)benzo[c]isoxazole-3-carboxamide] | ≥ 1000 nM |
| CSc1nnc(NC(=O)c2onc3ccc(C(=O)c4ccccc4)cc23)s1 [Compound 167, 5-benzoyl-N-(5-(methylthio)-1,3,4-thiadiazol-2-yl)benzo[c]isoxazole-3-carboxamide] | ≥ 1000 nM |
| CSc1nnc(NC(=O)c2onc3c(CO)cccc23)s1 [Compound 168, 7-(hydroxymethyl)-N-(5-(methylthio)-1,3,4-thiadiazol-2-yl)benzo[c]isoxazole-3-carboxamide] | 500 to 1000 nM |
| COCCc1cc(C(=O)Nc2nnc(-c3ccccc3Cl)s2)on1 [Compound 169, N-(5-(2-chlorophenyl)-1,3,4-thiadiazol-2-yl)-3-(2-methoxyethyl)isoxazole-5-carboxamide] | < 100 nM |
| COCc1cc(C(=O)Nc2nnc(-c3ccccc3Cl)s2)on1 [Compound 170, N-(5-(2-chlorophenyl)-1,3,4-thiadiazol-2-yl)-3-(methoxymethyl)isoxazole-5-carboxamide] | 100 to 500 nM |
| CSc1nnc(NC(=O)c2onc3c2CCc2scnc2-3)s1 [Compound 171, N-(5-(methylthio)-1,3,4-thiadiazol-2-yl)-4,5-dihydrothiazolo[5′,4′:5,6]benzo[1,2-c]isoxazole-3-carboxamide] | ≥ 1000 nM |
| COc1cccc2c1CCc1c-2noc1C(=O)Nc1nnc(SC)s1 [Compound 172, 6-Methoxy-N-(5-(methylthio)-1,3,4-thiadiazol-2-yl)-4,5-dihydronaphtho[1,2-c]isoxazole-3-carboxamide] | ≥ 1000 nM |
| CSc1nnc(NC(=O)c2onc3c2CCc2cccnc2-3)s1 [Compound 173, N-(5-(Methylthio)-1,3,4-thiadiazol-2-yl)-4,5-dihydroisoxazolo[4,3-h]quinoline-3-carboxamide] | 500 to 1000 nM |
| CSc1nnc(NC(=O)c2onc3c2CCc2cnc(C)nc2-3)s1 [Compound 174, 8-Methyl-N-(5-(methylthio)-1,3,4-thiadiazol-2-yl)-4,5-dihydroisoxazolo[4,3-h]quinazoline-3-carboxamide] | ≥ 1000 nM |
| COCCOc1cc(C(=O)Nc2nnc(-c3ccccc3Cl)s2)on1 [Compound 175, N-(5-(2-chlorophenyl)-1,3,4-thiadiazol-2-yl)-3-(2-methoxyethoxy)isoxazole-5-carboxamide] | 100 to 500 nM |
| CSc1nnc(NC(=O)c2cc(-c3ccccc3-c3ccc(CC(=O)O)cc3)cc(=O)o2)s1 [Compound 176] | 500 to 1000 nM |
| CSc1nnc(NC(=O)c2cc(-c3ccccc3-c3cccc(CC(=O)O)c3)cc(=O)o2)s1 [Compound 177, 2-(2′-(6-((5-(methylthio)-1,3,4-thiadiazol-2-yl)carbamoyl)-2-oxo-2H-pyran-4-yl)-[1,1′-biphenyl]-3-yl)acetic acid] | 500 to 1000 nM |
| O=C(Nc1nnc(-c2ccccc2Cl)s1)c1onc2c(C(=O)O)cccc12 [Compound 178, 3-((5-(2-chlorophenyl)-1,3,4-thiadiazol-2-yl)carbamoyl)benzo[c]isoxazole-7-carboxylic acid] | < 100 nM |
| O=C(Nc1nnc(-c2ccccc2Cl)s1)c1cc(CCO)no1 [Compound 179, N-(5-(2-chlorophenyl)-1,3,4-thiadiazol-2-yl)-3-(2-hydroxyethyl)isoxazole-5-carboxamide] | 100 to 500 nM |
| CSc1nnc(NC(=O)c2noc3c2CCc2cccnc2-3)s1 [Compound 180, N-(5-(methylthio)-1,3,4-thiadiazol-2-yl)-4,5-dihydroisoxazolo[4,5-h]quinoline-3-carboxamide] | 500 to 1000 nM |
| CSc1nnc(NC(=O)c2onc3c2CCc2sc(C)nc2-3)s1 [Compound 181, 7-methyl-N-(5-(methylthio)-1,3,4-thiadiazol-2-yl)-4,5-dihydrothiazolo[5′,4′:5,6]benzo[1,2-c]isoxazole-3-carboxamide] | 500 to 1000 nM |
| CSc1nnc(NC(=O)c2cc(-c3ccccc3-c3ccccc3)cc(=O)o2)s1 [Compound 182, 4-([1,1′-biphenyl]-2-yl)-N-(5-(methylthio)-1,3,4-thiadiazol-2-yl)-2-oxo-2H-pyran-6-carboxamide] | 500 to 1000 nM |
| CSc1nnc(NC(=O)c2onc3ccc(Cn4cc(C(=O)O)c(=O)c5ccccc54)cc23)s1 [Compound 184, 1-((3-((5-(Methylthio)-1,3,4-thiadiazol-2-yl)carbamoyl)benzo[c]isoxazol-5-yl)methyl)-4-oxo-1,4-dihydroquinoline-3-carboxylic acid] | ≥ 1000 nM |

| SMILES | IC50 |
| --- | --- |
| CSc1nnc(NC(=O)c2onc3ccc(Cc4ccc5c(c4)OCO5)cc23)s1 [Compound 185, 5-(Benzo[d][1,3]dioxol-5-ylmethyl)-N-(5-(methylthio)-1,3,4-thiadiazol-2-yl)benzo[c]isoxazole-3-carboxamide] | ≥ 1000 nM |
| CSc1nnc(NC(=O)c2onc3ccc(Cc4ccc(O)c(O)c4)cc23)s1 [Compound 186, 5-(3,4-Dihydroxybenzyl)-N-(5-(methylthio)-1,3,4-thiadiazol-2-yl)benzo[c]isoxazole-3-carboxamide] | 500 to 1000 nM |
| COc1ccc(Cc2ccc3noc(C(=O)Nc4nnc(SC)s4)c3c2)cc1O [Compound 187, 5-(3-hydroxy-4-methoxybenzyl)-N-(5-(methylthio)-1,3,4-thiadiazol-2-yl)benzo[c]isoxazole-3-carboxamide] | ≥ 1000 nM |
| CSc1nnc(NC(=O)c2onc3ccc(Cc4ccc(O)cc4)cc23)s1 [Compound 188, 5-(4-hydroxybenzyl)-N-(5-(methylthio)-1,3,4-thiadiazol-2-yl)benzo[c]isoxazole-3-carboxamide] | 500 to 1000 nM |
| CSc1nnc(NC(=O)c2onc3ccc(Cc4c[nH]c(=O)c(O)c4)cc23)s1 [Compound 189, 5-((5-Hydroxy-6-oxo-1,6-dihydropyridin-3-yl)methyl)-N-(5-(methylthio)-1,3,4-thiadiazol-2-yl)benzo[c]isoxazole-3-carboxamide] | ≥ 1000 nM |
| CSc1nnc(NC(=O)c2nnn3c2ccc2ccccc23)s1 [Compound 190, N-(5-(methylthio)-1,3,4-thiadiazol-2-yl)-[1,2,3]triazolo[1,5-a]quinoline-3-carboxamide] | ≥ 1000 nM |
| CSc1nnc(NC(=O)c2onc3ccc(CO)cc23)s1 [Compound 191, 5-(hydroxymethyl)-N-(5-(methylthio)-1,3,4-thiadiazol-2-yl)benzo[c]isoxazole-3-carboxamide] | ≥ 1000 nM |
| CSc1nnc(NC(=O)c2onc3cc(C(=O)N(C)C)ccc23)s1 [Compound 192, N^6,N^6-dimethyl-N^3-(5-(methylthio)-1,3,4-thiadiazol-2-yl)benzo[c]isoxazole-3,6-dicarboxamide] | ≥ 1000 nM |
| CNC(=O)c1ccc2c(C(=O)Nc3nnc(SC)s3)onc2c1 [Compound 193, N6-methyl-N3-(5-(methylthio)-1,3,4-thiadiazol-2-yl)benzo[c]isoxazole-3,6-dicarboxamide] | ≥ 1000 nM |
| CSc1nnc(NC(=O)c2onc3cc(CO)ccc23)s1 [Compound 194, 6-(hydroxymethyl)-N-(5-(methylthio)-1,3,4-thiadiazol-2-yl)benzo[c]isoxazole-3-carboxamide] | 500 to 1000 nM |
| CSc1nnc(NC(=O)c2onc3c2CCCC3=O)s1 [Compound 195, N-(5-(methylthio)-1,3,4-thiadiazol-2-yl)-7-oxo-4,5,6,7-tetrahydrobenzo[c]isoxazole-3-carboxamide] | ≥ 1000 nM |
| CSc1nnc(NC(=O)c2onc3c2CCCC3O)s1 (centres unmarked) [Compound 196, 7-Hydroxy-N-(5-(methylthio)-1,3,4-thiadiazol-2-yl)-4,5,6,7-tetrahydrobenzo[c]isoxazole-3-carboxamide] | ≥ 1000 nM |
| CCc1nnc(NC(=O)c2onc3c2ccc2cccnc23)s1 [Compound 197, N-(5-ethyl-1,3,4-thiadiazol-2-yl)isoxazolo[4,3-h]quinoline-3-carboxamide] | 100 to 500 nM |
| CSc1nnc(NC(=O)c2cn(CCC(C)(C)C)nn2)s1 [Compound 198, 1-(3,3-dimethylbutyl)-N-(5-(methylthio)-1,3,4-thiadiazol-2-yl)-1H-1,2,3-triazole-4-carboxamide] | ≥ 1000 nM |
| CSc1nnc(NC(=O)c2cc(=O)c3cccc(O)c3[nH]2)s1 [Compound 199, 8-hydroxy-N-(5-(methylthio)-1,3,4-thiadiazol-2-yl)-4-oxo-1,4-dihydroquinoline-2-carboxamide] | ≥ 1000 nM |
| CSc1nnc(NC(=O)c2cc(O)cc(-c3ccccc3)n2)s1 [Compound 200, 4-hydroxy-N-(5-(methylthio)-1,3,4-thiadiazol-2-yl)-6-phenylpicolinamide] | ≥ 1000 nM |
| CSc1nnc(NC(=O)c2cc(-c3ccccc3)ncn2)s1 [Compound 201, N-(5-(methylthio)-1,3,4-thiadiazol-2-yl)-6-phenylpyrimidine-4-carboxamide] | ≥ 1000 nM |
| CSc1nnc(NC(=O)c2cc(Oc3ccccc3)cc(=O)o2)s1 [Compound 202, N-(5-(methylthio)-1,3,4-thiadiazol-2-yl)-2-oxo-4-phenoxy-2H-pyran-6-carboxamide] | 500 to 1000 nM |
| CSc1nnc(NC(=O)c2cc(-c3ccccc3)c(C)c(=O)o2)s1 [Compound 203, 3-methyl-N-(5-(methylthio)-1,3,4-thiadiazol-2-yl)-2-oxo-4-phenyl-2H-pyran-6-carboxamide] | 100 to 500 nM |
| CSc1nnc(NC(=O)c2onc3cc(C(=O)O)ccc23)s1 [Compound 204] | 100 to 500 nM |
